Patent US8906888B2, “Low-calcemic 16,23-diene 25-oxime analogs of 1α,25-dihydroxy vitamin D3” (Cytochroma Inc., priority 2005, dated 2014)

Experiments:
LNCaP cells = test: [3H]-Thymidine proliferation assay with LNCaP cells; type: cell-based; settings: prostate cancer cells, 3 days, 3H-thymidine incorporation
Method: 1. Preparation of Cell Suspension. • When LNCaP cells were 70-80% confluent, aspirated media. Washed the cells with 1×PBS. Trypsinized with trypsin-EDTA from the plate, collected cells from the tissue culture flask, centrifuged (500×g, 5 min) and resuspended in media.
2. Cell Plating. • Counted the cells and adjusted the cell density to 2,000/ml. Added 200 μl per well in a 96 well plate. Incubated plate for 24 h at 37° C. in a humidified atmosphere plus 5% CO2. Aspirated used media and replace with 175 μl per well with media.
(§1) 3. Substrate Addition. • Added 25 μl of compound (final concentration 10^−7 M, 5×10^−8 M, 10^−8 M, 5×10^−9 M, 10^−10 M or 0 M) into each designated well. Incubated plates for 3 days at 37° C. in a humidified atmosphere plus 5% CO2.
(§2) 4. ^3H-Thymidine Incorporation. • Added ^3H-thymidine at 0.02 μCi per well and incubated at 37° C. in a humidified atmosphere plus 5% CO2 for 6 h.
5. Plate Harvesting. • Aspirated all media. Trypsinized cells for 30 min at 37° C. in a humidified atmosphere plus 5% CO2. Harvested cells onto a 96 well filter plate (Millipore) using a Tomtec Cell Harvestor, according to manufacturers instructions.
6. Scintillation Counting. • Added 25 μl of scintillation fluid per well. Counted the plate using a scintillation counter. Results: Compound (20R)-I(e) inhibited LNCaP cell proliferation.

[1] = Pharmacokinetics after i.v. administration in rats; type: in vivo; settings: rat, iv, male Wistar rats, 16 mg/kg B.W.
Method: A formulation of compound (20R)-I(e) dissolved in saline (0.9% NaCl): propylene glycol:ethanol (5:3:2; v/v/v) was prepared at a concentration of 20 mg/ml.
Nine male Wistar rats (150-200 g) were fasted 8 hours prior to the initiation of the study. At the initiation of the study, the nine rats received 0.8 ml/kg body weight (B.W.) of the dosing formulation by intravenous (i.v.) injection to deliver 16 mg of compound (20R)-I(e)/kg B.W. Blood was collected from three animals at 0 (day-1), 5, 15, 30, 60, 120, 180 and 240 minutes post dosing. At each time point, 1 ml of blood was collected from the orbital sinus in unpreserved Microtainer tubes. Separated serum samples were kept frozen at −80° C. until analysis. The concentration of compound (20R)-I(e) in the serum samples was quantified using a High Performance Liquid Chromatographic method with Mass Spectroscopy detection (LC MS/MS). An internal standard was added to an aliquot of […] of serum sample and extracted using solid phase extraction (SPE). Samples were passed through C18-SPE cartridges then compound (20R)-I(e) and the internal standard were eluted with 1 ml of methanol. Extracts were evaporated to dryness under nitrogen. The residues were reconstituted in […] of methanol:water (8:2; v/v) and analyzed by LC MS/MS. (iii) Results: Summary of the calculated pharmacokinetic parameters for the i.v. administration of a 16 mg/kg B.W. dose of compound (20R)-I(e) is in the Table below. The Area-Under-Curve (AUC) was calculated from T=0 to 240 min. The maximum concentration (Cmax) was determined from the mean serum concentration versus time profile. The elimination half life (T1/2) was calculated from the elimination phase of the concentration versus time profile assuming first order kinetic elimination.

SCC-25 cells = test: [3H]-Thymidine proliferation assay with SCC-25 cells; type: cell-based; settings: head and neck cancer cells, 3 days, 3H-thymidine incorporation
Method: 1. Preparation of Cell Suspension • When SCC-25 cells were 70-80% confluent, aspirated media. Washed the cells with 1×PBS. Trypsinized with trypsin-EDTA from the plate, collected cells from the tissue culture flask, centrifuged (500×g, 5 min) and resuspended in media.
2. Cell Plating. • Counted the cells and adjusted the cell density to 10,000/ml. Added 200 μl per well in a 96 well plate. Incubated plate for 24 h at 37° C. in a humidified atmosphere plus 5% CO2. Aspirated used media and replaced with 175 μl per well with media.
as §1, §2
5. Plate Harvesting. • Aspirated all media and washed cells with 1×PBS. Trypsinized cells for 30 min at 37° C. in a humidified atmosphere plus 5% CO2. Harvested cells onto a 96 well filter plate (Millipore) using a Tomtec Cell Harvestor, according to manufacturers instructions.
6. Scintillation Counting. • Added 25 μl of scintillation fluid per well. Counted the plate using a scintillation counter. Results: Compound (20R)-1(e) inhibited SCC-25 cell proliferation.

Cmax ([1]; mean serum concentration): 0.0389 µg/mL
AUC ([1]; serum, T=0 to 240 min): 0.0396 µg·h/mL
half-life ([1]; serum, first order elimination assumed, read-out: T1/2 (elimination half life) (converted)): 15 min
SMILES: C=C1/C(=C\C=C2/CCC[C@]3(C)C([C@H](C)C/C=C/C(=NOC)C(C)(C)C)=CC[C@@H]23)C[C@@H](O)C[C@@H]1O [(20R)-I(e)]
Inhibition of LNCaP cell proliferation (LNCaP cells): inhibited
Inhibition of SCC-25 cell proliferation (SCC-25 cells): inhibited
